Laboratory results from BindingDB's records for PubMed 8301582 (Neuroscience Research Centre, 1994).

Biological target: D(3) dopamine receptor (Homo sapiens, UniProt P35462)
Sequence (P35462 as listed by the source): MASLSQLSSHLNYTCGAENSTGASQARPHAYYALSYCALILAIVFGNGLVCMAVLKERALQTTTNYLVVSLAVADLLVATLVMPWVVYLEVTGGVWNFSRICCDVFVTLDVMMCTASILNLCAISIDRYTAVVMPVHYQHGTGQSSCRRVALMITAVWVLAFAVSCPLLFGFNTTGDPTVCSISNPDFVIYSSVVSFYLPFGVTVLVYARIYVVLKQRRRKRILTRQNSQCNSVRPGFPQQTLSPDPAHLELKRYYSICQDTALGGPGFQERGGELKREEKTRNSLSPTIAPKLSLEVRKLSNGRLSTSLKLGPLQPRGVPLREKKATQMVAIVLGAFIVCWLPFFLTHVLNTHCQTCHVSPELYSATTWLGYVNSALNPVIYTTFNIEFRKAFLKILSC

First: COc1ccc2c(c1O)-c1c3c(cc4c1[C@H](C2)N(C)CC4)OCO3 [(S)-11-methoxy-7-methyl-6,7,7a,8-tetrahydro-5H-benzo[g][1,3]dioxolo[4',5':4,5]benzo[1,2,3-de]quinolin-12-ol]
Second: CCCN1CCc2cc(F)cc3c2C1Cc1ccc(O)c(O)c1-3 (configuration not stated) [CAS_18426-20-5]
The Ki of the first is 25000-fold higher: 5200 nM for the first, 0.21 nM for the second.

Compared with `CC(C)C[C@H]1C(=O)N2CCC[C@H]2[C@]2(O)O[C@](NC(=O)[C@@H]3C=C4c5cccc6[nH]c(Br)c(c56)C[C@H]4N(C)C3)(C(C)C)C(=O)N12` [Bromocriptine+ (GTP+)], `NC1CCc2cc(OC(=O)c3ccccc3)c(OC(=O)c3ccccc3)cc2C1` (configuration not stated) [CAS_129816] is 76-fold higher in Ki: 2.1 nM for the first, 160 nM for the second. The first binds more tightly here.

First: Cc1cc2c(cc1C)CC(N)CC2 (configuration not stated) [ADTN DIMETHYL 5,6]
Second: CCCN(CCC)C1CCc2cc(O)c(O)cc2C1 (racemic) [CAS_62421-17-4]
The Ki of the first is 25-fold higher: 17 nM for the first, 0.68 nM for the second.

`CCCN(CCC)C1C=Cc2c(OC)cccc2C1C` (configuration not stated) [CAS_5311190] showed a Ki of 4.9 nM.
